Tests used:
H1650 cells = assay: MTT assay for cell proliferation and cytotoxicity; format: cell-based; conditions: Homo sapiens, NCI-H1650; MTT, 48 h, mean ± SD; read-out: IC50 H1650
Procedure: (§1) The compounds were dissolved in DMSO to make a 50 mM stock solution and were diluted to the concentration of working solutions with the complete growth medium before administration.
(§2) Cells were seeded in 96-well plates with densities of 2,200–2,500 cells/well in 100 μL. One day after seeding, the concentration of the test compounds between 0 and 50 μM, 0.1% DMSO was added to cells as control. […] After 48 h, MTT was added and incubated in the plate for 1–4 h in the incubator.

[1] = test system: human esophageal epithelial cell SHEE; assay: MTT assay, toxicity against normal cells; format: cell-based; conditions: MTT, normal human esophageal epithelial cells, mean ± SD, read-out: IC50 SHEE
Procedure: Cells were seeded in 96-well plates with densities of 2,200–2,500 cells/well in 100 μL. One day after seeding, the concentration of the test compounds between 0 and 50 μM, 0.1% DMSO was added to cells as control. Approximately 2200-2500 transfected cells in 100 μL were incubated in quintuplicate in 96-well plates. After 48 h, MTT was added and incubated in the plate for 1–4 h in the incubator.

KYSE70 cells = assay: MTT assay for cell proliferation and cytotoxicity; format: cell-based; conditions: Homo sapiens, KYSE-70; MTT, 48 h, mean ± SD; read-out: IC50 KYSE70
Procedure: as §1, §2

KYSE450 cells = assay: MTT assay for cell proliferation and cytotoxicity; format: cell-based; conditions: Homo sapiens, KYSE-450; MTT, 48 h, mean ± SD; read-out: IC50 KYSE450
Procedure: as §1, §2

HCC827 cells = assay: MTT assay for cell proliferation and cytotoxicity; format: cell-based; conditions: Homo sapiens, 48 h, mean ± SD
Procedure: as §1, §2

KYSE410 cells = assay: MTT assay for cell proliferation and cytotoxicity; format: cell-based; conditions: Homo sapiens, KYSE-410; MTT, 48 h, mean ± SD; read-out: IC50 KYSE410
Procedure: as §1, §2

| SMILES | IC50 (H1650 cells) | IC50 [1] | IC50 (KYSE70 cells) | IC50 (KYSE450 cells) | melting point | IC50 (HCC827 cells) | IC50 (KYSE410 cells) |
| --- | --- | --- | --- | --- | --- | --- | --- |
| COCCOc1cc2ncnc(Nc3cccc(-c4cn(Cc5ccccc5)nn4)c3)c2cc1OCCOC [Compound 3a, {3-[1-Benzyl-1H-(1,2,3)Triazol-4-yl]-Phenyl}-[6,7-Bis-(2-Methoxy-Ethoxy)-Quinazolin-4-yl]-Amine] | 34 ± 2.77 µM | > 50 µM | 5.85 ± 0.28 µM | 5.27 ± 0.31 µM | 89 to 92 °C | > 50 µM | 9.7 ± 0.75 µM |
| COCCOc1cc2ncnc(Nc3cccc(-c4cn(Cc5ccccc5I)nn4)c3)c2cc1OCCOC [Compound 3b, [6,7-Bis-(2-Methoxy-Ethoxy)-Quinazolin-4-yl]-{3-[1-(2-Iodo-Benzyl)-1H-(1,2,3)Triazol-4-yl]-Phenyl}-Amine] | > 50 µM | 8.05 ± 0.71 µM | 9.03 ± 0.82 µM | 20.6 ± 1.87 µM | 93 to 96 °C | > 50 µM | 17.6 ± 1.37 µM |
| COCCOc1cc2ncnc(Nc3cccc(-c4cn(Cc5ccccc5Br)nn4)c3)c2cc1OCCOC [Compound 3c, [6,7-Bis-(2-Methoxy-Ethoxy)-Quinazolin-4-yl]-{3-[1-(2-Bromo-Benzyl)-1H-(1,2,3)Triazol-4-yl]-Phenyl}-Amine] | 5.72 ± 0.33 µM | 22.4 ± 2.53 µM | 5.35 ± 0.34 µM | 5.47 ± 0.29 µM | 94 to 97 °C | > 50 µM | > 50 µM |
| COCCOc1cc2ncnc(Nc3cccc(-c4cn(-c5cccc(OC)c5)nn4)c3)c2cc1OCCOC [Compound 3e, [6,7-Bis-(2-Methoxy-Ethoxy)-Quinazolin-4-yl]-{3-[1-(3-Methoxy-Phenyl)-1H-(1,2,3)Triazol-4-yl]-Phenyl}-Amine] | 21.1 ± 1.74 µM | > 50 µM | 12.6 ± 1.01 µM | 6.25 ± 0.35 µM |  | > 50 µM | > 50 µM |
| COCCOc1cc2ncnc(Nc3cccc(-c4cn(-c5ccccc5F)nn4)c3)c2cc1OCCOC [Compound 3f, [6,7-Bis-(2-Methoxy-Ethoxy)-Quinazolin-4-yl]-{3-[1-(2-Fluoro-Phenyl)-1H-(1,2,3)Triazol-4-yl]-Phenyl}-Amine] | > 50 µM | 12.1 ± 1.33 µM | > 50 µM | 34.2 ± 3.01 µM | 83 to 86 °C | 17.8 ± 1.61 µM | > 50 µM |
| COCCOc1cc2ncnc(Nc3cccc(-c4cn(-c5ccc(F)cc5)nn4)c3)c2cc1OCCOC [Compound 3g, [6,7-Bis-(2-Methoxy-Ethoxy)-Quinazolin-4-yl]-{3-[1-(4-Fluoro-Phenyl)-1H-(1,2,3)Triazol-4-yl]-Phenyl}-Amine] | 29.6 ± 2.18 µM | 8.01 ± 0.83 µM | 5.46 ± 0.23 µM | 44.5 ± 4.23 µM | 88 to 91 °C | > 50 µM | > 50 µM |
| COCCOc1cc2ncnc(Nc3cccc(-c4cn(-c5ccccc5Cl)nn4)c3)c2cc1OCCOC [Compound 3h, [6,7-Bis-(2-Methoxy-Ethoxy)-Quinazolin-4-yl]-{3-[1-(2-Chloro-Phenyl)-1H-(1,2,3)Triazol-4-yl]-Phenyl}-Amine] | > 50 µM | 6.03 ± 0.57 µM | > 50 µM | > 50 µM | 131 to 134 °C | > 50 µM | > 50 µM |
| COCCOc1cc2ncnc(Nc3cccc(-c4cn(-c5ccccc5Br)nn4)c3)c2cc1OCCOC [Compound 3i, [6,7-Bis-(2-Methoxy-Ethoxy)-Quinazolin-4-yl]-{3-[1-(2-Bromo-Phenyl)-1H-(1,2,3)Triazol-4-yl]-Phenyl}-Amine] | > 50 µM | 6.23 ± 0.62 µM | 36.1 ± 3.17 µM | > 50 µM | 93 to 97 °C | 24.2 ± 2.34 µM | > 50 µM |
| COCCOc1cc2ncnc(Nc3cccc(-c4cn(-c5ccc(Br)cc5)nn4)c3)c2cc1OCCOC [Compound 3j, [6,7-Bis-(2-Methoxy-Ethoxy)-Quinazolin-4-yl]-{3-[1-(4-Bromo-Phenyl)-1H-(1,2,3)Triazol-4-yl]-Phenyl}-Amine] | 4.98 ± 0.17 µM | 7.2 ± 0.63 µM | 3.72 ± 0.33 µM | 3.6 ± 0.27 µM | 105 to 108 °C | 6.27 ± 0.42 µM | > 50 µM |
| COCCOc1cc2ncnc(Nc3cccc(-c4cn(-c5ccccc5OC)nn4)c3)c2cc1OCCOC [Compound 3k, [6,7-Bis-(2-Methoxy-Ethoxy)-Quinazolin-4-yl]-{3-[1-(2-Methoxy-Phenyl)-1H-[1,2,3]Triazol-4-yl]-Phenyl}-Amine] | 16 ± 1.69 µM | 10.3 ± 0.96 µM | 16 ± 1.53 µM | 20 ± 2.25 µM | 87 to 90 °C | 6.18 ± 0.61 µM | 32 ± 3.25 µM |
| COCCOc1cc2ncnc(Nc3cccc(-c4cn(-c5ccc(C)cc5)nn4)c3)c2cc1OCCOC [Compound 3l, [6,7-Bis-(2-Methoxy-Ethoxy)-Quinazolin-4-yl]-[3-(1-p-Tolyl-1H-(1,2,3)Triazol-4-yl)-Phenyl]-Amine] | 10 ± 0.79 µM | 4.82 ± 0.32 µM | 11.1 ± 0.94 µM | > 50 µM | 95 to 98 °C | 4.61 ± 0.28 µM | > 50 µM |
| COCCOc1cc2ncnc(Nc3cccc(-c4cn(-c5cccc([N+](=O)[O-])c5)nn4)c3)c2cc1OCCOC [Compound 3m, [6,7-Bis-(2-Methoxy-Ethoxy)-Quinazolin-4-yl]-{3-[1-(3-Nitro-Phenyl)-1H-(1,2,3)Triazol-4-yl]-Phenyl}-Amine] | 4.27 ± 0.19 µM | > 50 µM | 3.92 ± 0.15 µM | 4.05 ± 0.21 µM | 98 to 101 °C | 8.44 ± 0.37 µM | 5.85 ± 0.2 µM |
| CCOc1cccc(-n2cc(-c3cccc(Nc4ncnc5cc(OCCOC)c(OCCOC)cc45)c3)nn2)c1 [Compound 3n, [6,7-Bis-(2-Methoxy-Ethoxy)-Quinazolin-4-yl]-{3-[1-(3-Ethoxy-Phenyl)-1H-(1,2,3)Triazol-4-yl]-Phenyl}-Amine] | 35.4 ± 3.46 µM | 22.6 ± 2.31 µM | > 50 µM | 12.8 ± 1.25 µM | 110 to 114 °C | 13.7 ± 1.34 µM | 49.7 ± 4.57 µM |
| COCCOc1cc2ncnc(Nc3cccc(-c4cn(-c5ccccc5)nn4)c3)c2cc1OCCOC [Compound 3o, [6,7-Bis-(2-Methoxy-Ethoxy)-Quinazolin-4-yl]-[3-(1-Phenyl-1H-(1,2,3)Triazol-4-yl)-Phenyl]-Amine] | > 50 µM | 14.2 ± 1.61 µM | > 50 µM | 46.8 ± 4.63 µM |  | > 50 µM | 49.5 ± 5.01 µM |
| COCCOc1cc2ncnc(Nc3cccc(-c4cn(-c5ccccc5C(F)(F)F)nn4)c3)c2cc1OCCOC [Compound 3p, [6,7-Bis-(2-Methoxy-Ethoxy)-Quinazolin-4-yl]-{3-[1-(2-Trifluoromethyl-Phenyl)-1H-(1,2,3)Triazol-4-yl]-Phenyl}-Amine] | > 50 µM | > 50 µM | > 50 µM | 24.9 ± 2.16 µM | 113 to 116 °C | 34.7 µM | > 50 µM |
| COCCOc1cc2ncnc(Nc3cccc(-c4cn(-c5ccc(OC)cc5OC)nn4)c3)c2cc1OCCOC [Compound 3q, [6,7-Bis-(2-Methoxy-Ethoxy)-Quinazolin-4-yl]-{3-[1-(2,4-Dimethoxy-Phenyl)-1H-(1,2,3)Triazol-4-yl]-Phenyl}-Amine] | > 50 µM | 28.1 ± 2.47 µM | > 50 µM | > 50 µM | 85 to 88 °C | > 50 µM | 12.3 ± 0.93 µM |
| COCCOc1cc2ncnc(Nc3cccc(-c4cn(-c5ccc(C)cc5O)nn4)c3)c2cc1OCCOC [Compound 3r, 2-(4-{3-[6,7-Bis-(2-Methoxy-Ethoxy)-Quinazolin-4-Ylamino]-Phenyl}-(1,2,3)Triazol-1-yl)-5-Methyl-Phenol] | 4.32 ± 0.27 µM | > 50 µM | 5.85 ± 0.52 µM | 8.2 ± 0.67 µM | 100 to 103 °C | 12.4 ± 1.07 µM | 8.74 ± 0.74 µM |

Source: article PMC9065260 (Frontiers in Pharmacology, 2022)
